Measurements from US20250230193A1, “CYCLIC COMPOUND HAVING SELECTIVE KRAS INHIBITORY EFFECT ON HRAS AND NRAS” (CHUGAI SEIYAKU KABUSHIKI KAISHA, priority 2022, published 2025).

Assays:
[1] = target: GDP-bound NRAS wild-type protein (Homo sapiens, UniProt P01111); test: Binding to NRAS by surface plasmon resonance (SPR), Single Cycle Kinetics; conditions: KD ratio, GDP-bound NRAS wild-type vs GDP-bound KRAS wild-type, SPR
[2] = target: GDP-bound HRAS wild-type protein (Homo sapiens, UniProt P01112); test: Binding to HRAS by surface plasmon resonance (SPR), Single Cycle Kinetics; conditions: KD ratio, GDP-bound HRAS wild-type vs GDP-bound KRAS wild-type, SPR
Sequence of GDP-bound HRAS wild-type protein (P01112 whole entry): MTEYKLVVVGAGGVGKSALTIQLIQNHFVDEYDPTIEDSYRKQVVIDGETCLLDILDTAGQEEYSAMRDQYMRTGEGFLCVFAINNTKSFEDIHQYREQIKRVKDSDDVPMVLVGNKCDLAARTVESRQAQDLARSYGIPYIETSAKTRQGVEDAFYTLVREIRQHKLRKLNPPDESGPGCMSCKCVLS

Sequence of GDP-bound NRAS wild-type protein (P01111 whole entry): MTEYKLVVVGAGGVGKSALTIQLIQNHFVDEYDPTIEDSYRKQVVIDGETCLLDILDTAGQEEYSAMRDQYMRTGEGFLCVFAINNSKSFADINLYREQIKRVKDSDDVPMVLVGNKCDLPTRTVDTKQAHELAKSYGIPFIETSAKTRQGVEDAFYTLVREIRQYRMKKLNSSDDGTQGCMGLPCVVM

| SMILES | NRAS/KRAS (ratio of KD value for NRAS to KD value for KRAS) [1] | HRAS/KRAS (ratio of KD value for HRAS to KD value for KRAS) [2] |
| --- | --- | --- |
| CCCN(C)C(=O)[C@@H]1CC(=O)N(C)[C@@H](C)C(=O)N[C@@H]([C@@H](C)CC)C(=O)N(C)CC(=O)N(C)[C@H]2C/C=C\CCN(C2=O)[C@@H](Cc2ccc(C(F)(F)F)cc2)C(=O)N(C)CC(=O)N[C@@H](CCc2cc(F)c(C(F)(F)F)c(F)c2)C(=O)N2C[C@H](OCC)C[C@H]2C(=O)NC2(CC(F)(F)C2)C(=O)N(C)[C@@H](C2CCCC2)C(=O)N1C [PP1731] | A (a compound having 10 or more and less than 20 is denoted as A) | A (a compound having 10 or more and less than 20 is denoted as A) |
| CCCN(C)C(=O)[C@@H]1CC(=O)N(C)[C@@H](CC)C(=O)N[C@@H]([C@@H](C)CC)C(=O)N(C)CC(=O)N(C)[C@H]2C/C=C\CCN(C2=O)[C@@H](Cc2ccc(C(F)(F)F)cc2)C(=O)N(C)CC(=O)N[C@@H](CCc2cc(F)c(C(F)(F)F)c(F)c2)C(=O)N2C[C@H](OCC)C[C@H]2C(=O)NC2(CC(F)(F)C2)C(=O)N(C)[C@@H](C2CCCC2)C(=O)N1C [PP1732] | AA (a compound having 20 or more is denoted as AA) | A (a compound having 10 or more and less than 20 is denoted as A) |
| CCCN(C)C(=O)[C@@H]1CC(=O)N(C)[C@@H](CC(F)F)C(=O)N[C@@H]([C@@H](C)CC)C(=O)N(C)CC(=O)N(C)[C@H]2C/C=C\CCN(C2=O)[C@@H](Cc2ccc(C(F)(F)F)cc2)C(=O)N(C)CC(=O)N[C@@H](CCc2cc(F)c(C(F)(F)F)c(F)c2)C(=O)N2C[C@H](OCC)C[C@H]2C(=O)NC2(CC(F)(F)C2)C(=O)N(C)[C@@H](C2CCCC2)C(=O)N1C [PP1733] | A (a compound having 10 or more and less than 20 is denoted as A) | A (a compound having 10 or more and less than 20 is denoted as A) |
| CCCN(C)C(=O)[C@@H]1CC(=O)N(C)[C@@H](CC(F)(F)F)C(=O)N[C@@H]([C@@H](C)CC)C(=O)N(C)CC(=O)N(C)[C@H]2C/C=C\CCN(C2=O)[C@@H](Cc2ccc(C(F)(F)F)cc2)C(=O)N(C)CC(=O)N[C@@H](CCc2cc(F)c(C(F)(F)F)c(F)c2)C(=O)N2C[C@H](OCC)C[C@H]2C(=O)NC2(CC(F)(F)C2)C(=O)N(C)[C@@H](C2CCCC2)C(=O)N1C [PP1734] | A (a compound having 10 or more and less than 20 is denoted as A) | A (a compound having 10 or more and less than 20 is denoted as A) |
| CCC[C@H]1C(=O)N[C@@H]([C@@H](C)CC)C(=O)N(C)CC(=O)N(C)[C@H]2C/C=C\CCN(C2=O)[C@@H](Cc2ccc(C(F)(F)F)cc2)C(=O)N(C)CC(=O)N[C@@H](CCc2cc(F)c(C(F)(F)F)c(F)c2)C(=O)N2C[C@H](OCC)C[C@H]2C(=O)NC2(CC(F)(F)C2)C(=O)N(C)[C@@H](C2CCCC2)C(=O)N(C)[C@H](C(=O)N(C)CC)CC(=O)N1C [PP1735] | AA (a compound having 20 or more is denoted as AA) | A (a compound having 10 or more and less than 20 is denoted as A) |
| CCC[C@H]1C(=O)N[C@@H]([C@@H](C)CC)C(=O)N(C)CC(=O)N(C)[C@H]2C/C=C\CCN(C2=O)[C@@H](Cc2ccc(C(F)(F)F)cc2)C(=O)N(C)CC(=O)N[C@@H](CCc2cc(F)c(C(F)(F)F)c(F)c2)C(=O)N2C[C@H](OCC)C[C@H]2C(=O)NC2(CC(F)(F)C2)C(=O)N(C)[C@@H](C2CCCC2)C(=O)N(C)[C@H](C(=O)N(C)CCC)CC(=O)N1C [PP1736] | A (a compound having 10 or more and less than 20 is denoted as A) | A (a compound having 10 or more and less than 20 is denoted as A) |
| C#CC[C@H]1C(=O)N[C@@H]([C@@H](C)CC)C(=O)N(C)CC(=O)N(C)[C@H]2C/C=C\CCN(C2=O)[C@@H](Cc2ccc(C(F)(F)F)cc2)C(=O)N(C)CC(=O)N[C@@H](CCc2cc(F)c(C(F)(F)F)c(F)c2)C(=O)N2C[C@H](OCC)C[C@H]2C(=O)NC2(CC(F)(F)C2)C(=O)N(C)[C@@H](C2CCCC2)C(=O)N(C)[C@H](C(=O)N(C)CCC)CC(=O)N1C [PP1737] | A (a compound having 10 or more and less than 20 is denoted as A) | A (a compound having 10 or more and less than 20 is denoted as A) |
| CCO[C@@H]1C[C@H]2C(=O)NC3(CC(F)(F)C3)C(=O)N(C)[C@@H](C3CCCC3)C(=O)N(C)[C@H](C(=O)N(C)CC)CC(=O)N(C)[C@@H](CC3CC3)C(=O)N[C@@H]([C@@H](C)CC)C(=O)N(C)CC(=O)N(C)[C@H]3C/C=C\CCN(C3=O)[C@@H](Cc3ccc(C(F)(F)F)cc3)C(=O)N(C)CC(=O)N[C@@H](CCc3cc(F)c(C(F)(F)F)c(F)c3)C(=O)N2C1 [PP1738] | AA (a compound having 20 or more is denoted as AA) | A (a compound having 10 or more and less than 20 is denoted as A) |
| CCCN(C)C(=O)[C@@H]1CC(=O)N(C)[C@@H](CC2CC2)C(=O)N[C@@H]([C@@H](C)CC)C(=O)N(C)CC(=O)N(C)[C@H]2C/C=C\CCN(C2=O)[C@@H](Cc2ccc(C(F)(F)F)cc2)C(=O)N(C)CC(=O)N[C@@H](CCc2cc(F)c(C(F)(F)F)c(F)c2)C(=O)N2C[C@H](OCC)C[C@H]2C(=O)NC2(CC(F)(F)C2)C(=O)N(C)[C@@H](C2CCCC2)C(=O)N1C [PP1739] | AA (a compound having 20 or more is denoted as AA) | AA (a compound having 20 or more is denoted as AA) |
| CCCC[C@H]1C(=O)N[C@@H]([C@@H](C)CC)C(=O)N(C)CC(=O)N(C)[C@H]2C/C=C\CCN(C2=O)[C@@H](Cc2ccc(C(F)(F)F)cc2)C(=O)N(C)CC(=O)N[C@@H](CCc2cc(F)c(C(F)(F)F)c(F)c2)C(=O)N2C[C@H](OCC)C[C@H]2C(=O)NC2(CC(F)(F)C2)C(=O)N(C)[C@@H](C2CCCC2)C(=O)N(C)[C@H](C(=O)N(C)C)CC(=O)N1C [PP1740] | A (a compound having 10 or more and less than 20 is denoted as A) | A (a compound having 10 or more and less than 20 is denoted as A) |
| CCO[C@@H]1C[C@H]2C(=O)NC3(CC(F)(F)C3)C(=O)N(C)[C@@H](C3CCCC3)C(=O)N(C)[C@H](C(=O)N(C)C)CC(=O)N(C)[C@@H](CC(C)C)C(=O)N[C@@H]([C@@H](C)CC)C(=O)N(C)CC(=O)N(C)[C@H]3C/C=C\CCN(C3=O)[C@@H](Cc3ccc(C(F)(F)F)cc3)C(=O)N(C)CC(=O)N[C@@H](CCc3cc(F)c(C(F)(F)F)c(F)c3)C(=O)N2C1 [PP1741] | A (a compound having 10 or more and less than 20 is denoted as A) | B (a compound having 3 or more and less than 10 is denoted as B) |
| CCO[C@@H]1C[C@H]2C(=O)NC3(CC(F)(F)C3)C(=O)N(C)[C@@H](C3CCCC3)C(=O)N(C)[C@H](C(=O)N(C)C)CC(=O)N(C)[C@@H](CC3CCC3)C(=O)N[C@@H]([C@@H](C)CC)C(=O)N(C)CC(=O)N(C)[C@H]3C/C=C\CCN(C3=O)[C@@H](Cc3ccc(C(F)(F)F)cc3)C(=O)N(C)CC(=O)N[C@@H](CCc3cc(F)c(C(F)(F)F)c(F)c3)C(=O)N2C1 [PP1742] | A (a compound having 10 or more and less than 20 is denoted as A) | A (a compound having 10 or more and less than 20 is denoted as A) |
| CCCN(C)C(=O)[C@@H]1CC(=O)N(C)[C@@H](COC)C(=O)N[C@@H]([C@@H](C)CC)C(=O)N(C)CC(=O)N(C)[C@H]2C/C=C\CCN(C2=O)[C@@H](Cc2ccc(C(F)(F)F)cc2)C(=O)N(C)CC(=O)N[C@@H](CCc2cc(F)c(C(F)(F)F)c(F)c2)C(=O)N2C[C@H](OCC)C[C@H]2C(=O)NC2(CC(F)(F)C2)C(=O)N(C)[C@@H](C2CCCC2)C(=O)N1C [PP1743] | AA (a compound having 20 or more is denoted as AA) | A (a compound having 10 or more and less than 20 is denoted as A) |
| CCCOC[C@H]1C(=O)N[C@@H]([C@@H](C)CC)C(=O)N(C)CC(=O)N(C)[C@H]2C/C=C\CCN(C2=O)[C@@H](Cc2ccc(C(F)(F)F)cc2)C(=O)N(C)CC(=O)N[C@@H](CCc2cc(F)c(C(F)(F)F)c(F)c2)C(=O)N2C[C@H](OCC)C[C@H]2C(=O)NC2(CC(F)(F)C2)C(=O)N(C)[C@@H](C2CCCC2)C(=O)N(C)[C@H](C(=O)N(C)CCC)CC(=O)N1C [PP1744] | A (a compound having 10 or more and less than 20 is denoted as A) | A (a compound having 10 or more and less than 20 is denoted as A) |
| CCO[C@@H]1C[C@H]2C(=O)NC3(CC(C)(C)C3)C(=O)N(C)[C@@H](C3CCCC3)C(=O)N(C)[C@H](C(=O)N(C)C)CC(=O)N(C)[C@@H](CC)C(=O)N[C@@H]([C@@H](C)CC)C(=O)N(C)CC(=O)N(C)[C@H]3C/C=C\CCN(C3=O)[C@@H](Cc3ccc(C(F)(F)F)cc3)C(=O)N(C)CC(=O)N[C@@H](CCc3ccc(C(F)(F)F)c(Cl)c3)C(=O)N2C1 [PP1746] | A (a compound having 10 or more and less than 20 is denoted as A) | A (a compound having 10 or more and less than 20 is denoted as A) |
| CCO[C@@H]1C[C@H]2C(=O)NC3(CC(C)(C)C3)C(=O)N(C)[C@@H](C3CCCC3)C(=O)N(C)[C@H](C(=O)N(C)C)CC(=O)N(C)[C@@H](CC(F)F)C(=O)N[C@@H]([C@@H](C)CC)C(=O)N(C)CC(=O)N(C)[C@H]3C/C=C\CCN(C3=O)[C@@H](Cc3ccc(C(F)(F)F)cc3)C(=O)N(C)CC(=O)N[C@@H](CCc3ccc(C(F)(F)F)c(Cl)c3)C(=O)N2C1 [PP1747] | A (a compound having 10 or more and less than 20 is denoted as A) | A (a compound having 10 or more and less than 20 is denoted as A) |
